Converted amounts (≈) assume the structure as drawn.

In series [1] the test system is Balb/c 3T3 mouse fibroblast cells. Briefly: 3T3 neutral red uptake (NRU) phototoxicity test. In kind it is cell-based. The source says: A pharmacophore for phototoxicity was developed to be used as an in silico screening tool to determine the minimum phototoxic concentration for a number of AAQMS (WR069878 and those indicated in Table 5). Minimum phototoxic concentration in a yeast assay for a number of AAQMS, as per Ison et al.; Phototoxicity of Quinoline methanols and other drugs in mice and yeast; J. Invest. Dermatol. (52)193-198 (1969) were used to generate a three-dimensional pharmacophore model using the HypoGen algorithm of the […]® (Accelrys software Inc.) methodology as per Bhattacharjee et al.; A 3D QSAR pharmacophore model and quantum chemical structure—activity analysis of chloroquine(CQ)-resistance reversal; J. Chem Inf. Comput Sci. (42) 1212-1220 (2002), and Dow et al.; as discussed in Antimicrob Agents Chemother. (48)2624-2632 (2004), cited above, both Bhattacharjee et al. and Dow et al, incorporated herein, by reference. The structures of clinically used quinoline methanols were mapped onto the pharmacophores and estimated values for minimum phototoxic concentration were generated. The 3T3 neutral red uptake (NRU) phototoxicity test, conducted by MB Research Laboratories (Spinnerstown, Pa.), was used to identify quinoline methanols (WR069878 and those in Table 5) that have the potential to exert in vivo phototoxicity after systemic application. Briefly, the central 60 wells of two 96-well plates per AAQM were seeded with Balb/c 3T3 mouse fibroblast cells and maintained in culture for 24 hrs. These plates were then pre-incubated with a range of eight different concentrations of test compound (six wells per concentration) for one hour. Next, one plate was treated with a UVA dose of 5 J/cm2 by irradiating for 50 min at 1.7 mW/cm2, whereas the other plate remained non-treated and in the dark. Next, the treatment medium was replaced with culture medium and cell viability was determined after 24 hrs by measuring neutral red uptake for 3 hrs. Finally, the 3T3 NRU Phototox Prediction Software (version 2.0, ZEBET) was used to calculate EC50 values and Photo-Irritant Factors (PIF) for each compound. […]

Series [2] has as its system AMRU1 strain of P. vivax. Kind of series: Efficacy in P. vivax-challenged Aotus monkeys. The series is classed as in vivo, Plasmodium vivax in Aotus lemurinus lemurinus. As to conditions: oral; for Outcome: Aotus. As to the method: The P. berghei-mouse efficacy data were obtained from the WRAIR chemical information system (subcutaneous testing) or from recent tests conducted at AFRIMS, Thailand or at the University of Miami using a modified version of the Thompson test. Groups of five mice were inoculated through i.p. injection on day 0 (usually with 1×106 P. berghei-parasitized erythrocytes). The drugs in Table 1 were administered either subcutaneously or orally for three days (usually on days 3-5) at doses of 1.25-160 mg/kg in two to four fold increments. Cure was defined as survival until day 60 (subcutaneous dosing) or day 31 post-treatment (oral dosing). […] The minimum effective dose was the lowest dose level that cured at least one of five mice. The Aotus studies were performed according to Obaldia; Detection of Klebsiella pnuumoniae antibodies in Aotus l. lemurinus (Panamanian owl monkey) using an enzyme linked immunosorbent assay (ELIA) test; Lab Anim (25)133-141 (1991) and Obaldia et al., WR 238605, chloroquine, and their combinations as blood schizonticides against a chloroquine-resistant strain of Plasmodium vivax in Aotus monkeys; Am. J. Trop. Med. Hyg. (56)508-510 (1997), which are incorporated by reference, herein. Groups of two Aotus lemurinus 6 lemurinus of the karyotype VIII or IX (27) male and female monkeys with weights ranging from 742-970 g were inoculated with 5×10^6 parasites of either the FVO strain of P. falciparum or the AMRU1 strain of P. vivax. Both of these strains are chloroquine resistant. […] Monkeys were examined and thick Giemsa-stained blood smears were prepared and enumerated daily (17) to monitor the course of infection. […] In some instances, a high dose of the test drug was used to retreat monkeys instead of the mefloquine rescue. Monkeys are considered cured if they are parasite free 90 days post treatment. […] Plasma samples were taken from the monkeys in some studies for quantification of metabolites. Additional blood samples were taken as appropriate for complete blood counts and serum chemistry. Research was conducted in compliance with the Animal Welfare Act and other federal statutes and regulations relating to animals and experiments involving animals and adheres to principles stated in the Guide for the Care and Use of Laboratory Animals, NRC Publication, 1996 edition (34).

Series [3] has as its system P. falciparum D6. Briefly: In vitro antimalarial activity against P. falciparum D6. The series is classed as cell-based, Plasmodium falciparum. As for the experimental part:
(§1) The in vitro activities of AAQMs against P. falciparum strains W2, D6, TM91C235 and TM90C2A were evaluated using the method of Desjardins et al. as modified by Milhous et al. W2 is chloroquine resistant and mefloquine sensitive, D6 is chloroquine sensitive but naturally less susceptible to mefloquine, TM91C235 is resistant to mefloquine, chloroquine and pyrimethamine as is TM90C2A, however this latter parasite is a two pfmdr1 copy strain. We routinely run mefloquine in this screen as a control to ensure assay validity.
The combined effects of azithromycin (as represented by compound 196 on the horizontal axes of FIG. 4 through 6) and WR074086 (as represented by compound 14885 on vertical axes of FIGS. 4 through 6) against three strains of P. falciparum were investigated using isobologram analysis. First, the IC50s of each compound were determined as described above.

Series [4] relates to P. falciparum TM90C2A. Kind of series: In vitro antimalarial activity against P. falciparum TM90C2A. In kind it is cell-based, Plasmodium falciparum. As to the method: as §1
The test system of series [5] is P. falciparum TM91C235. Kind of series: In vitro antimalarial activity against P. falciparum TM91C235. The series is classed as cell-based, Plasmodium falciparum.

On to `CCCCN(CCCC)CC(O)c1cc(-c2ccc(Cl)cc2)nc2cc(Cl)c(C)cc12` (stereo not shown) [WR069878], for which, in series [1], the “Photo Irritant Factor (PIF)” value is given as greater than 100. Further, the Outcome entry is “Failure” in series [2] (0.625 mg/kg/day x 3 days, primary treatment); “Failure” in series [2] (2.5 mg/kg/day x 3 days, primary treatment); “Clear (7) and Cure” in series [2] (10 mg/kg/day x 3 days, primary treatment, number in brackets = days before recrudescence, 10 mg/kg/day); “Cure and Clear (8)” in series [2] (20 mg/kg/day x 1 day, retreatment, one monkey per line, number in brackets = days before recrudescence, 20 mg/kg/day); “Cure” in series [2] (40 mg/kg/day x 3 days, retreatment); “Clear (11) and Cure” in series [2] (80 mg/kg/day x 1 day, retreatment, number in brackets = days before recrudescence, 80 mg/kg/day). Further, the “Outcome in P. vivax infections” value in series [2] (three day regimen) is given as “cures P. vivax infections”. Besides, the “IC90 against D6” value in series [3] was found to be 5.3 ng/mL (≈ 0.0115 µM). The “IC90 against TM90C2A” value in series [4] was found to be 16 ng/mL (≈ 0.0348 µM). In addition, the “Activity against P. falciparum TM91C235 (IC50 in ng/ml)” value in series [5] is 1.5 ng/mL. Besides, in series [5] (Table 2), the “TM91C235 IC90” value was determined as 3.3 ng/mL. Also, in series [5] (text b26), the “IC90 against TM91C235” value is 11.7 ng/mL (≈ 0.0255 µM).

Source of the values: patent US20110092488A1, “Quninoline Methanol Compounds for the Treatment and Prevention of Parasitic Infections” (priority 2005, published 2011).
